The results in this text go back to PubChem BioAssay (NCI).

Experiment in all cases: inhibition of tumour cell growth, NCI panel, 48 h
The subject of test [1] is BT-549 breast.
The subject of test [2] is SF-539 CNS.
In test [3] the test system is T-47D breast.
In test [4] the test system is OVCAR-4 ovarian.
For test [5], the system named is HOP-62 NSCLC.
The subject of test [6] is A498 renal.
For test [7], the system named is SW-620 colon.
Test [8] deals with K-562 leukemia.
The test system of test [9] is IGROV1 ovarian.
The test system of test [10] is LOX IMVI melanoma.

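A five-concentration, 48-hour dose response in 96-well plates underlies each endpoint, interpolated linearly between surrounding concentrations. At the GI50, growth is halved. TGI: total growth inhibition.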

In the case of `c1ccc2c3ccn4cc5c(cc4c-3nc2c1)CCCC5`, the GI50 in [1] is 11.3 µM; in test [2], 3.4 µM; in test [3], 3.27 µM; in test [4] it was 2.85 µM; in [5], 3.5 µM; in test [6] it was 11.6 µM. In test [8], the GI50 is 1.95 µM. Besides, the TGI in [1] came out at 59.6 µM; in test [2], 17.1 µM; in test [3], 15 µM; in test [4], 11 µM; in test [5], 13.1 µM; in test [6] it was 24.1 µM. For the same molecule, the TGI in test [7] worked out at 9.85 µM; in [8] it was 12.6 µM.
`O=C1c2ccn(CCCCNC(CO)(CO)CO)c2C(=O)c2c1c(O)c1ccccc1c2O`: the GI50 was 22.7 µM in test [1]; 2.01 µM in test [9]; 2.76 µM in [3]; 2.35 µM in [4]; 3.82 µM in test [5]; 16.5 µM in test [6]. Further, the GI50 in [7] is 2.02 µM. Moreover, the TGI in [1] was 69.9 µM; in test [9], > 100 µM; in test [3], > 22.1 µM; in [4] it was > 22.2 µM; in test [5] it was 8.77 µM; in [6], 46.8 µM. The TGI in test [7] was 13 µM.
As to `Cc1cn2c(/C=C3/C(=O)Nc4ccccc43)c(-c3ccc(Cl)cc3)nc2s1`, the GI50 in [1] was 9.32 µM; in test [9], 10.2 µM; in test [2] it was 5.8 µM; in test [10], 5.84 µM; in test [5] it was 8.46 µM; in test [6] it was 10.6 µM. Also, the GI50 in test [7] is 15.1 µM; in test [8] it was 46.5 µM. Besides, the TGI is 19.3 µM in [1]; 19.9 µM in [9]; 11.9 µM in test [2]; 12 µM in [10]; 15.3 µM in test [5]; 23.6 µM in [6]. Also, the TGI in [7] is 38.2 µM; in test [8], > 50 µM.
In the case of `COc1ccc(-c2cc(-c3cccn3C)c(C#N)c(N)n2)cc1OC`, the GI50 in test [1] was 64 µM; in [9] it was 96 µM; in test [2], 82.4 µM; in test [3], > 100 µM; in [10] it was > 100 µM; in test [4], 40.7 µM. Further, the GI50 is 82.8 µM in [6], > 100 µM in test [7] and 55.6 µM in test [8]. Further, the TGI in [1], in test [9], in test [2], in test [3], in test [10] and in [4] was > 100 µM throughout. Moreover, the TGI in test [6], in test [7] and in test [8] was > 100 µM throughout.
`Cc1[nH]n(-c2cccc(Cl)c2)c(=O)c1/C=C1\C=Nc2ccc(Br)cc21`: the GI50 is 7.89 µM in test [1]; 3.04 µM in test [9]; 4.32 µM in [2]; 2.06 µM in [3]; 5.48 µM in test [10]; 1.59 µM in test [4]. Further, the GI50 is 2.33 µM in test [5], 2.08 µM in test [6] and 3.58 µM in [7]. Further, the TGI is 30 µM in test [1]; 9.34 µM in [9]; 16.7 µM in [2]; 6.26 µM in test [3]; 38 µM in [10]; 2.95 µM in [4]. In addition, the TGI in [5] was 5.14 µM; in test [6], 5.18 µM; in test [7], > 100 µM.
As for `CCOC(=O)C1=C(C)N(N)C(=S)NC1c1ccc(C)cc1` (stereo not given), the TGI in test [1] is 9.16 µM; in [9] it was > 100 µM; in [3] it was > 100 µM; in test [10] it was > 100 µM; in [4] it was > 100 µM; in [5], > 100 µM. In addition, the TGI in [6] and in [8] was > 100 µM each time. In addition, the GI50 is 28.2 µM in test [9]; 23.1 µM in test [3]; 9.19 µM in [10]; 66 µM in test [4]; > 100 µM in test [5]; 11.2 µM in test [6]. For the same molecule, in test [8], the GI50 was 21.6 µM.
Take `COc1cc2c(cc1OC)C13CCN4CC5=CCOC6CC(=O)N2C1C6C5CC43O` (stereo not given): the TGI in test [1], in [9], in test [2], in [3], in [10] and in [4] was > 100 µM throughout. Further, the TGI in [6], in test [7] and in test [8] was > 100 µM in each case.
As to `O=C(CCCN1CC=C(n2c(=O)[nH]c3ccccc32)CC1)c1ccc(F)cc1`, the GI50 in test [1] is 24.9 µM; in [9], > 100 µM; in [3], 19.7 µM; in test [10] it was 26 µM; in test [4] it was 30 µM; in test [5] it was 57.6 µM. Besides, the GI50 in test [7] was 53.5 µM; in test [8], 29.3 µM. Further, the TGI in test [1] is 86.8 µM; in [9] it was > 100 µM; in test [3], 73.6 µM; in [10], > 100 µM; in test [4], > 100 µM; in test [5], > 100 µM. In addition, the TGI in test [7] and in test [8] was > 100 µM throughout.
For the molecule `NC(N)=N/N=C/c1cc(Cl)cc(Cl)c1O`, the TGI in test [9], in test [2], in [3], in [10], in test [4] and in test [5] was > 100 µM in each case. The TGI in test [6], in [7] and in [8] was > 100 µM each time.
